Results published in paper PMC10690437 (Nature immunology, 2023).

System: HLA-E
Test: HLA-E expression on PBMCs after IFNγ treatment
Type: cell-based, human
Settings: PBMCs cultured with 5 ng ml^−1 IFNγ for 2 days; 3D12 flow cytometry

IFNγ: interferon-γ (BioLegend, PeproTech)
HLA-E surface expression on peripheral blood cells: increase in HLA-E surface expression
